Experimental data from ChEMBL document CHEMBL4330078, “Discovery of potent Pan-Raf inhibitors with increased solubility to overcome drug resistance” (Eur J Med Chem, 2019).

Assays:
[1] = AUC (0 to infinity) in Sprague-Dawley rat at […], iv by LC-MS/MS analysis; format: ADME, organism-based; set-up: dose 2.5 mg/kg, time infinity, route intravenous; conditions: in vivo
[2] = AUC (0 to t) in Sprague-Dawley rat at 10 mg/kg, po by LC-MS/MS analysis; format: ADME, organism-based; conditions: in vivo
[3] = AUC (0 to infinity) in Sprague-Dawley rat at 10 mg/kg, po by LC-MS/MS analysis; format: ADME, organism-based; set-up: dose 10 mg/kg, route oral, time infinity; conditions: in vivo
[4] = Volume of distribution at steady state in Sprague-Dawley rat at […], iv by LC-MS/MS analysis; format: ADME, organism-based; conditions: in vivo, read-out: Vdss
[5] = Half life in Sprague-Dawley rat at […], iv by LC-MS/MS analysis; format: ADME, organism-based; conditions: in vivo
[6] = Tmax in Sprague-Dawley rat at […], iv by LC-MS/MS analysis; format: ADME, organism-based; conditions: in vivo
[7] = Oral bioavailability in Sprague-Dawley rat at 10 mg/kg by LC-MS/MS analysis; format: ADME, organism-based; conditions: in vivo
[8] = Half life in human liver microsomes at 0.5 uM by LC-MS/MS analysis; format: ADME, Microsome
[9] = Tmax in Sprague-Dawley rat at 10 mg/kg, po by LC-MS/MS analysis; format: ADME, organism-based; conditions: in vivo
[10] = Cmax in Sprague-Dawley rat at 10 mg/kg, po by LC-MS/MS analysis; format: ADME, organism-based; set-up: dose 10 mg/kg, route oral; conditions: in vivo
[11] = Cmax in Sprague-Dawley rat at […], iv by LC-MS/MS analysis; format: ADME, organism-based; set-up: dose 2.5 mg/kg, route intravenous; conditions: in vivo
[12] = AUC (0 to t) in Sprague-Dawley rat at […], iv by LC-MS/MS analysis; format: ADME, organism-based; conditions: in vivo
[13] = Clearance in Sprague-Dawley rat at […], iv by LC-MS/MS analysis; format: ADME, organism-based; conditions: in vivo

| SMILES | AUC(0-inf) [1] [ng·h/mL] | AUC(0-t) [2] [ng·h/mL] | AUC(0-inf) [3] [ng·h/mL] | Vd [4] [L/kg] | half-life [5] [h] | Tmax [6] [min] | bioavailability [7] [%] | half-life at 0.5 µM [8] [h] | Tmax [9] [h] | Cmax [10] [ng/mL] | Cmax [11] [ng/mL] | AUC(0-t) [12] [ng·h/mL] | clearance [13] [mL/min/kg] |
| --- | --- | --- | --- | --- | --- | --- | --- | --- | --- | --- | --- | --- | --- |
| Cc1ccc(C(=O)Nc2ccc(OCC3CCN(C)CC3)c(C(F)(F)F)c2)cc1NC(=O)C1(c2ncnc3[nH]ccc23)CC1 | 607 | 503 | 522 | 45.7 | 7.7 | 4.98 | 22.9 | 6.5 | 4 | 72.1 | 272 | 549 | 68.3 |
| CNC(=O)c1cc(Oc2ccc(NC(=O)Nc3ccc(Cl)c(C(F)(F)F)c3)cc2)ccn1 [SORAFENIB] |  |  |  |  |  |  |  | 5.6 |  |  |  |  |  |
